From patent publication US20100314318A1, “HALOGENATED AMIDE BIOCIDAL COMPOUNDS AND METHODS FOR TREATING WATER SYSTEMS AT NEAR NEUTRAL TO HIGH PH” (priority 2009, published 2010)

Columns and labels:
[1] = Stability against hydrolysis in buffered dilute solutions, HPLC
[2] = system: bacteria in Cooling Tower water; assay: Efficacy in cooling tower water sample (about pH 8.3), serial dilution count; format: cell-based
bacterial consortium = assay: Preservation of calcium carbonate slurry Hydrocarb 90 (pH 8.7); conditions: 24-hr contact
[3] = system: bacteria isolated from Cooling Tower water; assay: Efficacy in sterile artificial Cooling Tower water (approx. pH 8.5); format: cell-based; conditions: 30° C.
[4] = system: Pseudomonas aeruginosa ATCC 10145; assay: Bactericidal efficacy in synthetic salts water pH 8.5; format: cell-based; conditions: 37° C.
Description: A sterile synthetic salts water is prepared and inoculated with Pseudomonas aeruginosa ATCC 10145 at about 10^7 CFU/mL. The synthetic water is prepared to contain (in 1 liter deionized water) the following: CaCl2, 0.2203 g; MgSO4, 0.1847 g; and NaHCO3, 0.2033 g. The final pH of the synthetic cooling water is adjusted to 8.5. Aliquots of the cell suspension are then treated with biocides at selected dosage levels. The same contaminated water sample without biocide is used as control. After incubating at 37° C. for different time intervals, numbers of surviving bacteria are enumerated using a serial dilution method. After incubating for 24 hr, all cell suspensions are reinoculated with Pseudomonas aeruginosa ATCC 10145 at 10^6 CFU/mL. The efficacy results for […]

[5] = going from pH 6 to pH 8.9; cited from earlier work
[6] = system: bacteria isolated from field; assay: Efficacy in semi-synthetic metal working fluid; format: cell-based; conditions: room temperature, MWF

With `N#CC(Br)(Br)C(N)=O` [DBNPA, 2,2-Dibromo-3-nitrilopropionamide] the “level of DBMAL or DBNPA remaining (HPLC)” value ([1]; pH 6.9, T = 30 C., 0 hours) was 3991, the “level of DBMAL or DBNPA remaining (HPLC)” value ([1]; pH 6.9, T = 30 C., 2 hours) was 4155 and the “level of DBMAL or DBNPA remaining (HPLC)” value ([1]; pH 6.9, T = 30 C., 24 hours) was 2557. The “level of DBMAL or DBNPA remaining (HPLC)” value ([1]; pH 6.9, T = 30 C., 48 hours) was 1361, the “level of DBMAL or DBNPA remaining (HPLC)” value ([1]; pH 6.9, T = 30 C., 72 hours) was 918 and the “level of DBMAL or DBNPA remaining (HPLC)” value ([1]; pH 6.9, T = 30 C., 96 hours) was 658. The “level of DBMAL or DBNPA remaining (HPLC)” value ([1]; pH 8, T = −1 C., 0 hours) was 4068, the “level of DBMAL or DBNPA remaining (HPLC)” value ([1]; pH 8, T = −1 C., 2 hours) was 3998 and the “level of DBMAL or DBNPA remaining (HPLC)” value ([1]; pH 8, T = −1 C., 24 hours) was 3506. The “level of DBMAL or DBNPA remaining (HPLC)” value ([1]; pH 8, T = −1 C., 48 hours) was 3578, the “level of DBMAL or DBNPA remaining (HPLC)” value ([1]; pH 8, T = −1 C., 72 hours) was 3149 and the “level of DBMAL or DBNPA remaining (HPLC)” value ([1]; pH 8, T = −1 C., 96 hours) was 3070. The “level of DBMAL or DBNPA remaining (HPLC)” value ([1]; pH 9, T = −1 C., 0 hours) was 3842, the “level of DBMAL or DBNPA remaining (HPLC)” value ([1]; pH 9, T = −1 C., 2 hours) was 2818 and the “level of DBMAL or DBNPA remaining (HPLC)” value ([1]; pH 9, T = −1 C., 24 hours) was 1256. For the same compound, the “level of DBMAL or DBNPA remaining (HPLC)” value ([1]; pH 9, T = −1 C., 48 hours) was 659, the “level of DBMAL or DBNPA remaining (HPLC)” value ([1]; pH 9, T = −1 C., 72 hours) was 363 and the “level of DBMAL or DBNPA remaining (HPLC)” value ([1]; pH 9, T = −1 C., 96 hours) was 239. The “Bacterial log10 reduction after biocide addition” value (shortened to “Bacterial log10 reduction”) ([2]; 12.5 ppm active, 1 hr) was 5.3 log10, the “Bacterial log10 reduction” value ([2]; 12.5 ppm active, 48 hrs, re-inoculated) was 1.5 log10 and the “Bacterial log10 reduction” value ([2]; 12.5 ppm active, 72 hrs, re-inoculated) was 0.7 log10. For the same compound, the “Bacterial log10 reduction” value ([2]; 12.5 ppm active, 96 hrs, re-inoculated) was 0.3 log10, the “Bacterial log10 reduction” value ([2]; 25 ppm active, 1 hr) was 5.2 log10 and the “Bacterial log10 reduction” value ([2]; 25 ppm active, 3 hr) was “>=5.7 log10”. The “Bacterial log10 reduction” value ([2]; 25 ppm active, 24 hrs) was “>=6.3 log10”, the “Bacterial log10 reduction” value ([2]; 25 ppm active, 48 hrs, re-inoculated) was 4.2 log10 and the “Bacterial log10 reduction” value ([2]; 25 ppm active, 72 hrs, re-inoculated) was 1.0 log10. For the same compound, the “Bacterial log10 reduction” value ([2]; 25 ppm active, 96 hrs, re-inoculated) was 0.7 log10, the “Bacterial log10 reduction” value ([2]; 50 ppm active, 1 hr) was “>=5.3 log10” and the “Bacterial log10 reduction” value ([2]; 50 ppm active, 3 hr) was “>=5.7 log10”. For the same compound, the “Bacterial log10 reduction” value ([2]; 50 ppm active, 24 hrs) was “>=6.3 log10”, the “Bacterial log10 reduction” value ([2]; 50 ppm active, 48 hrs, re-inoculated) was 6.1 log10 and the “Bacterial log10 reduction” value ([2]; 50 ppm active, 72 hrs, re-inoculated) was 1.0 log10. For the same compound, the “Bacterial log10 reduction” value ([2]; 50 ppm active, 96 hrs, re-inoculated) was 0.8 log10, the “change in populations of bacteria (FIG. 6)” value (bacterial consortium; 5 ppm) was “decrease relatively little” and the “decrease in numbers of bacteria (FIG. 6)” value (bacterial consortium; 10 ppm) was “approximately 0.5 orders of magnitude”. The “Minimum biocide dosage (ppm, active) needed for at least 3 log10 bacterial reduction” value ([3]; 1 h) was 8.0 ppm, the “Minimum biocide dosage (ppm, active) needed for at least 3 log10 bacterial reduction” value ([3]; 3 h) was 8.0 ppm and the “Minimum biocide dosage (ppm, active) needed for at least 3 log10 bacterial reduction” value ([3]; 24 h) was 11.0 ppm. For the same compound, the “Minimum biocide dosage (ppm, active) needed for at least 3 log10 bacterial reduction” value ([3]; 48 h, reinoculated) was 15.0 ppm, the “Minimum biocide dosage (ppm, active) needed for at least 3 log10 bacterial reduction” value ([3]; 72 h, reinoculated) was 15.0 ppm and the “Minimum biocide dosage (ppm, active) needed for at least 3 log10 bacterial reduction” value ([3]; 96 h, reinoculated) was 21.0 ppm. For the same compound, the “Dosage required for 3 log10 bacterial reduction (ppm, active)” value ([4]; 1 hr, pH 8.5) was 2.9 ppm, the “Dosage required for 3 log10 bacterial reduction (ppm, active)” value ([4]; 3 hr, pH 8.5) was 2.9 ppm and the “Dosage required for 3 log10 bacterial reduction (ppm, active)” value ([4]; 24 hr, pH 8.5) was 4.4 ppm. The “Dosage required for 3 log10 bacterial reduction (ppm, active)” value ([4]; 48 hr, pH 8.5, reinoculated after 24 hr) was 50.0 ppm, the “factor by which rate of disappearance increases” value [5] was “about 450” and the “Minimum dosage (ppm, active) required for at least 3 log10 reduction in bacterial counts” value ([6]; 2 h) was 42 ppm. For the same compound, the “Minimum dosage (ppm, active) required for at least 3 log10 reduction in bacterial counts” value ([6]; 4 h) was 32 ppm, the “Minimum dosage (ppm, active) required for at least 3 log10 reduction in bacterial counts” value ([6]; 24 h) was 42 ppm and the “Minimum dosage (ppm, active) required for at least 3 log10 reduction in bacterial counts” value ([6]; 48 h) was 55 ppm. For the same compound, the “Minimum dosage (ppm, active) required for at least 3 log10 reduction in bacterial counts” value ([6]; 72 h) was 55 ppm and the “Minimum dosage (ppm, active) required for at least 3 log10 reduction in bacterial counts” value ([6]; 96 h) was 55 ppm.
